Measured values as given in PMC9166630, “SAR Probing of KX2-391 Provided Analogues With Juxtaposed Activity Profile Against Major Oncogenic Kinases” (Frontiers in Oncology, 2022).

Experiments:
HL60 cells = assay: Apoptosis detection (Annexin V-FITC/PI); format: cell-based, human; conditions: HL60, 7 µM, 48 h
Method: Integral to the cell cycle analysis of 4e, we determined the population of cells undergoing apoptosis, or programmed cell death, by Annexin V-FITC/PI double staining in HL60 cells. Two different concentrations of 4e (3.5 µM and 7 µM) were selected for treatment.
Total apoptosis was detected using Annexin V-FITC Apoptosis Detection kit (Cell Signaling Technology, Danvers, MA, USA) as per the protocol. Briefly, 1.5 x 10^5 of HL60 cells were plated in a 6-well plate with appropriate compound concentrations at 37°C for 48 h. After the incubation completed, cells were washed twice with ice-cold PBS (1X). Subsequently cells were stained with Annexin V-FITC/PI and incubated in the dark on ice for 20 min. After washing with PBS wash, the cells were analyzed by acquiring a minimum total of 5000 events using BD FACSAria III flow cytometer (BD Biosciences, USA).

EphA3 = target: T1, EphA3 (Homo sapiens, UniProt P29320); assay: PamChip tyrosine kinase microarray, EphA3; format: biochemical; conditions: 4e 0.1 µM, HL60 lysate
T1 construct: endogenous in cells; host or cells: HL60 lysate
T1 sequence (P29320 21-983): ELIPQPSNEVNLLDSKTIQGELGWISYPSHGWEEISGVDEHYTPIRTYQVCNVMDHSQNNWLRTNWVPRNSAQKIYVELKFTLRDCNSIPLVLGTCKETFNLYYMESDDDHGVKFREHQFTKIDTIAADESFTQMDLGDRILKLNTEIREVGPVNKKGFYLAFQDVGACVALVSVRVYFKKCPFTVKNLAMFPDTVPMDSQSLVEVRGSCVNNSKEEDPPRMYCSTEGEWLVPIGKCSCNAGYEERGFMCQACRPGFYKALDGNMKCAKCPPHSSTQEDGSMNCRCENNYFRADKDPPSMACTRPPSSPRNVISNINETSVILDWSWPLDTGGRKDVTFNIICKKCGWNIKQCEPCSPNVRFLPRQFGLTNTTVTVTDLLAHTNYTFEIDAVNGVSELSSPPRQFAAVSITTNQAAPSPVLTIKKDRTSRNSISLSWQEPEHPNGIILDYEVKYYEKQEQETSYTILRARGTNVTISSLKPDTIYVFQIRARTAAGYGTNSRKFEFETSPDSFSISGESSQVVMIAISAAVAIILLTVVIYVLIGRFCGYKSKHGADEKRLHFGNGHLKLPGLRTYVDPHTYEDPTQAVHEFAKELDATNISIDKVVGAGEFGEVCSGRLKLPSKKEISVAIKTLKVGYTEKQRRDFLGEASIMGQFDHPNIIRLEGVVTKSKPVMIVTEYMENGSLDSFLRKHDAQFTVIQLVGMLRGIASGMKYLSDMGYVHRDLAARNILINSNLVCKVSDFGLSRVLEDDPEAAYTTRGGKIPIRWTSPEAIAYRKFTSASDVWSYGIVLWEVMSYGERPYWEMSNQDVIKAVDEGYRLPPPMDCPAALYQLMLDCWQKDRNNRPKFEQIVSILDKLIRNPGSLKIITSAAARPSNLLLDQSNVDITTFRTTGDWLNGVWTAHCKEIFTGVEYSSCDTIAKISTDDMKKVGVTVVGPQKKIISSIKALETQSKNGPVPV
Method: (§1) The changes in kinase activities induced by treatment with 4e were monitored within the HL60 cell lines using PamGene’s (Hertogenbosch, Netherlands) PamChip® peptide microarray profiler, which quantifies the activities of 144 tyrosine kinases (YK) ([29], [30]) (Figure 7). Results are provided as a log fold change (LFC) heatmap and Mean Kinase Statistic. From the LFC it is apparent that compound 4e, at a concentration of 0.1 µM, induced sizable changes to the activity of several kinases within the cell signaling YK profile (Figure 7A).
(§2) An Upstream Kinase tool was used to generate a putative list of kinases responsible for phosphorylating the phospho-sites on the PamChip (Figure 7B) ([31]). It is an interpretation and is highly dependent on the contents of the underlying phosphorylation databases. A Kinase Score was used for ranking kinases based on their significance and specificity in terms of the set of peptides used for the corresponding kinase. Kinase Statistics indicates the overall change of the peptide set that represents the kinase. Kinase statistics value <0 indicates lower kinase activity in the compound spiked lysate and vice versa ([32], [33]). Table 5 lists the 20 most changed kinases within treated HL60 cell lysates by 0.1 μM 4e, ranked according to their Kinase Score.
(§3) The compound 4e was spiked into HL60 cell lysate at different concentrations (0.001, 0.01, 0.1, 1, 10 and 50 μM). In addition, DMSO was also spiked in HL60 lysate at low concentration (2% v/v) as control. Samples were profiled on PamGene’s Tyrosine Kinase (PTK) arrays in technical replicates, covering a total of 196 phosphorylation sites. Frozen HL60 cultured cell pellet was sent to PamGene. At PamGene, cells were lysed using a lysis buffer and proteases inhibitors cocktail. Protein concentration was measured using standard Bradford assay as per PamGene SOPs. These lysates were further used for generating the PTK activity profiles. For spiking, 4e was received as powder form and dissolved in DMSO at PamGene facility followed by storing at -20°C in small aliquots. PamGene used its in-house bioinformatics toolbox in combination with other methods to generate hypotheses of signaling pathways.

TXK = assay: PamChip tyrosine kinase microarray, TXK; format: biochemical, human; conditions: 4e 0.1 µM, HL60 lysate
Method: as §1, §2, §3

Etk/BMX = assay: PamChip tyrosine kinase microarray, Etk/BMX; format: biochemical, human; conditions: 4e 0.1 µM, HL60 lysate
Method: as §1, §2, §3

Frk = assay: PamChip tyrosine kinase microarray, Frk; format: biochemical, human; conditions: 4e 0.1 µM, HL60 lysate
Method: as §1, §2
(§4) The two multiple-kinase tests (PamChip and Phosphokinase Profiler) provided strong evidence of very minor involvement of Src in the cellular activities of 4e. However, the question must be raised about the effect of the 4e on other SRC family kinase (SFK). To address this point, we must highlight that both R&D phosphokinase profiler and PamChip feature Yes, Fgr, Lyn, Lck and Src while Fyn, Hck, Blk and Frk activities are tested in the PamChip only. The signals of SFKs in the R&D Phosphokinase Profiler were too weak to detect in both untreated (control) and 4e-treated HL60 cells. In PamChip assay, most of SFK’s were not ranked in the top 20 affected kinases (Table 5). In addition, their Specificity Score were very low (Table 6) indicating their marginal importance to the cell killing activities of 4e. Fgr kinase which ranked 7th in the list (Table 5) was the only SFK member that seems to be affected by the compound, albeit with low Specificity Score (1.03).
(§5) The compound 4e was spiked into HL60 cell lysate at different concentrations (0.001, 0.01, 0.1, 1, 10 and 50 μM). In addition, DMSO was also spiked in HL60 lysate at low concentration (2% v/v) as control. Samples were profiled on PamGene’s Tyrosine Kinase (PTK) arrays in technical replicates, covering a total of 196 phosphorylation sites. Frozen HL60 cultured cell pellet was sent to PamGene. […] Protein concentration was measured using standard Bradford assay as per PamGene SOPs. […]

Src = assay: PamChip tyrosine kinase microarray, Src; format: biochemical, human; conditions: 4e 0.1 µM, HL60 lysate
Method: as §1, §2, §4, §5

Q: How did the “percentage of apoptotic cells” value (HL60 cells) turn out when `O=C(Cc1ccc(NC(=O)c2cccc(Cl)c2)cc1)NCc1ccccc1` [Compound 4e, N-(4-(2-(benzylamino)-2-oxoethyl)phenyl)-3-chlorobenzamide] was run?
A: increased significantly

Q: What about the “Mean Final Score” value (EphA3) of the same compound?
A: 1.9564

Q: And the “Mean Kinase Statistic” value (EphA3)?
A: -0.6074

Q: And the “Mean Significance Score” value (EphA3)?
A: 1.4547

Q: And the “Mean Specificity Score” value (EphA3)?
A: 0.5017

Q: What about the “Mean Final Score” value (TXK) of the same compound?
A: 1.9145

Q: And the “Mean Kinase Statistic” value (TXK)?
A: -0.5527

Q: What about the “Mean Significance Score” value (TXK) of the same compound?
A: 1.2373

Q: What about the “Mean Specificity Score” value (TXK) of the same compound?
A: 0.6772

Q: And the “Mean Final Score” value (Etk/BMX)?
A: 1.7640

Q: And the “Mean Kinase Statistic” value (Etk/BMX)?
A: -0.5143

Q: What about the “Mean Significance Score” value (Etk/BMX) of the same compound?
A: 1.3079

Q: And the “Mean Specificity Score” value (Etk/BMX)?
A: 0.4561

Q: And the “Mean Final Score” value (Frk)?
A: 1.6587

Q: And the “Mean Kinase Statistic” value (Frk)?
A: -0.5116

Q: And the “Mean Significance Score” value (Frk)?
A: 1.1484

Q: And the “Mean Specificity Score” value (Frk)?
A: 0.5102

Q: What about the “Mean Final Score” value (Src) of the same compound?
A: 0.7589

Q: What about the “Mean Kinase Statistic” value (Src) of the same compound?
A: -0.3527

Q: And the “Mean Significance Score” value (Src)?
A: 0.7353

Q: What about the “Mean Specificity Score” value (Src) of the same compound?
A: 0.0236
